O=[N+]([O-])c1cccc(Cl)c1Cl
solubility (mole fraction)
Conditions | in ethanol | in methanol | in water
278.15 K | 0.013 | 0.0122 | 1.6e-06
280.65 K | 0.0149 | 0.0137 | 2.03e-06
283.15 K | 0.0172 | 0.0157 | 2.45e-06
285.65 K | 0.0203 | 0.0182 | 2.88e-06
288.15 K | 0.0231 | 0.0206 | 3.91e-06
290.65 K | 0.0257 | 0.0232 | 4.85e-06
293.15 K | 0.0286 | 0.0258 | 5.85e-06
295.65 K | 0.0322 | 0.0288 | 6.98e-06
298.15 K | 0.0366 | 0.0315 | 8.68e-06
300.65 K | 0.0418 | 0.0343 | 1.07e-05
303.15 K | 0.0465 | 0.0376 | 1.29e-05

From BigSolDB 2.1
